Tests used:
[1] = Phase 1 open-label study: coadministration of combined oral contraceptive (EE+LNG) with elagolix sodium, pharmacokinetics, safety and tolerability; assay type: in vivo, human; details: for Ratio (90% CI) AUC, co-administration with elagolix vs medication alone / Ratio (90% CI) Cmax, co-administration with elagolix vs medication alone: ethinyl estradiol 20 mcg/levonorgestrel 0.1 mg single dose, elagolix 200 mg twice daily x 15 days, N 20; for AUC(0-t) / AUC(0-inf) / Cmax: female, human, in vivo, oral
Method: Objective: To evaluate the effect of elagolix on the pharmacokinetics, safety, and tolerability of a single dose of a combined oral contraceptive (COC) containing EE and LNG in healthy premenopausal female subjects. […] [table] […] Diagnosis and Main Criteria for Inclusion: Subjects were premenopausal females, and age was between 18 and 49 years, inclusive. Test Product, Dose/Strength/Concentration, and Mode of Administration: […] EE/LNG 0.02 mg/0.1 mg tablet; All study drugs were administered orally. Duration of Treatment: […] EE/LNG: 0.02 mg/0.1 mg on two separate occasions. Criteria for Evaluation: Pharmacokinetic: Cmax, Tmax, t1/2 and AUC. Safety: Vital signs, physical examinations, laboratory tests, and adverse events. […] The tabulation of the number of subjects with treatment-emergent adverse events also was provided with further breakdowns by severity rating and relationship to study drug.

[2] = Drug interaction studies: change in pharmacokinetics of co-administered drug in the presence of elagolix; assay type: in vivo, human
Method: Drug interaction studies were performed with elagolix and other drugs likely to be co-administered and with drugs commonly used as probes for pharmacokinetic interactions. Tables 8 and 9 summarize the pharmacokinetic effects when elagolix was co-administered with these drugs.

[3] = Drug interactions: effects of ORIAHNN on other drugs; details: co-administration of ORIAHNN
[4] = Drug interactions: effects of ORILISSA on other drugs; details: co-administration of ORILISSA
[5] = Drug-drug interaction study: effect of multiple doses of elagolix sodium on pharmacokinetics of bupropion (CYP2B6 substrate) and OH-bupropion; details: for t1/2: harmonic mean
Method: Subjects: Twenty four (24) adult premenopausal women in generally good health participated in this study.
Elagolix 300 mg BID (as 300 mg immediate release tablets) was administered in the morning and evening on days 1 through 14 in period 2. […] No food was consumed for 2 hours prior to the evening doses of elagolix continuing through 2 hours after. The doses of elagolix were separated by approximately 12 hours.
Individual PK parameters (peak concentration [Cmax] and area under the concentration-time curve [AUC]) were estimated using noncompartmental methods.
Central value ratios (90% confidence intervals) for Cmax, AUC, and metabolite to parent ratios (MPRs) (day 11, period 2 vs. day 1, period 1) were calculated to assess the DDIs. Safety was evaluated through assessment of adverse events, vital signs, electrocardiogram, and clinical laboratory tests.
Adverse events (AEs) were monitored throughout the DDI study. Additional safety evaluations included monitoring of physical examinations, vital signs, electrocardiogram variables, and clinical laboratory values were assessed

[6] = Drug interaction studies: change in pharmacokinetics of elagolix in the presence of co-administered drugs; assay type: in vivo, human; details: concomitant use of rifampin
[7] = Drug-drug interaction study: effect of multiple doses of elagolix sodium on pharmacokinetics of omeprazole (CYP2C19 substrate) and its metabolites; details: for Tmax: median
Method: Subjects: Twenty adult premenopausal female subjects were enrolled in the study.
Beginning on Day 3, subjects received elagolix 300 mg BID under fasting conditions every day until Day 10. […] Doses of elagolix were separated by approximately 12 hours.
Testing was performed for CYP2C19 variants including the *2 (r54244285), *3 (r54986893), *4 (r528399504), *8 (r541291556), *10 (r56413438) and *12 (r555640102) alleles.
Safety was evaluated during confinement and at each study visit through adverse event monitoring, vital signs measurements, physical examinations, and routine laboratory tests.

[8] = COC 20 mcg EE/0.1 mg levonorgestrel, elagolix 200 mg twice daily
[9] = COC 20 mcg EE/0.1 mg levonorgestrel, elagolix 200 mg twice daily, listed as EE
[10] = Study Day 1: EE/LNG 0.02 mg/0.1 mg
[11] = Study Day 1: EE/LNG 0.02 mg/0.1 mg, read-out: AUCt, Central Value Reference
[12] = Study Day 18: EE/LNG 0.02 mg/0.1 mg + elagolix 200 mg, read-out: AUCinf, Central Value Test
[13] = Study Day 18: EE/LNG 0.02 mg/0.1 mg + elagolix 200 mg, read-out: AUCt, Central Value Test
[14] = following elagolix 200 mg BID for 14 days
[15] = ethinyl estradiol 35 mcg and triphasic norgestimate 0.18/0.215/0.25 mg once daily, elagolix 150 mg once daily, N 21
[16] = digoxin 0.5 mg single dose, elagolix 200 mg twice daily x 10 days, N 11
[17] = bupropion 150 mg + elagolix 300 mg BID (Day 11, Period 2), mean
[18] = bupropion 150 mg alone (Day 1, Period 1), mean
[19] = bupropion + elagolix (Day 11, Period 2), median
[20] = bupropion alone (Day 1, Period 1), median
[21] = single 150 mg bupropion, elagolix 300 mg twice daily
[22] = norethindrone 0.35 mg once daily x 112 days, elagolix 150 mg once daily x 56 days, N 32
[23] = midazolam 2 mg single dose, elagolix 150 mg once daily x 13 days, N 11
[24] = midazolam 2 mg single dose, elagolix 300 mg twice daily x 11 days, N 20

C#C[C@]1(O)CC[C@H]2[C@@H]3CCc4cc(O)ccc4[C@H]3CC[C@@]21C [ethinyl estradiol, 17α-Ethynylestra-1,3,5(10)-triene-3,17β-diol]
AUCinf ratio, co-administered in the presence of elagolix vs alone [1, 8]: 2.18
Cmax ratio, co-administered in the presence of elagolix vs alone [1, 8]: 1.36
increase in plasma EE concentration compared to COC alone ([1]; COC 20 mcg EE/0.1 mg levonorgestrel, elagolix 200 mg twice daily for 14 days): 2.2 fold
AUCinf ratio, co-administered in the presence of elagolix vs alone [1, 9]: about 2.18
Cmax ratio, co-administered in the presence of elagolix vs alone [1, 9]: about 1.36
AUCinf, Central Value Reference [1, 10]: 0.494 ng·h/mL
CCmax, Central Value Reference [1, 10]: 49.0 pg/mL
CCmax, Central Value Test ([1]; Study Day 18: EE/LNG 0.02 mg/0.1 mg + elagolix 200 mg): 66.4 pg/mL
Ratio (90% CI) AUC, co-administration with elagolix vs medication alone [1]: 2.18
Ratio (90% CI) Cmax, co-administration with elagolix vs medication alone [1]: 1.36
AUC(0-t) [1, 11]: 0.437 ng·h/mL
AUC(0-inf) [1, 12]: 1.08 ng·h/mL
AUC(0-t) [1, 13]: 0.941 ng·h/mL
increase in AUCinf [1, 14]: 118%
increase in Cmax [1, 14]: 36%
Ratio (90% CI) AUC, co-administration with elagolix vs medication alone [2, 15]: 1.30
Ratio (90% CI) Cmax, co-administration with elagolix vs medication alone [2, 15]: 1.15
Effect on Plasma Exposure of Concomitant Drug (direction of change in AUC) [3]: ↑ethinyl
Effect on Plasma Exposure of Concomitant Drug (direction of change in AUC) [4]: ↑ethinyl

C[C@H]1O[C@@H](O[C@H]2[C@@H](O)C[C@H](O[C@H]3[C@@H](O)C[C@H](O[C@H]4CC[C@@]5(C)[C@H](CC[C@@H]6[C@@H]5C[C@@H](O)[C@]5(C)[C@@H](C7=CC(=O)OC7)CC[C@]65O)C4)O[C@@H]3C)O[C@@H]2C)C[C@H](O)[C@@H]1O [digoxin]
Ratio (90% CI) AUC, co-administration with elagolix vs medication alone [2, 16]: 1.26
Ratio (90% CI) Cmax, co-administration with elagolix vs medication alone [2, 16]: 1.71
Effect on Plasma Exposure of Concomitant Drug (direction of change in AUC) [3]: ↑ digoxin
Effect on Plasma Exposure of Concomitant Drug (direction of change in AUC) [4]: ↑ digoxin

CC(NC(C)(C)CO)C(=O)c1cccc(Cl)c1 (stereo not shown) [OH-Bupropion]
t1/2 ([5]; bupropion 150 mg + elagolix 300 mg BID (Day 11, Period 2)): 20.5 h
AUCinf [5, 17]: 17600 ng·h/mL
AUCt [5, 17]: 17000 ng·h/mL
Cmax [5, 17]: 429 ng/mL
Tmax ([5]; bupropion 150 mg + elagolix 300 mg BID (Day 11, Period 2), median, N = 24): 6.0 h
t1/2 ([5]; bupropion 150 mg alone (Day 1, Period 1)): 24.7 h
AUCinf [5, 18]: 16700 ng·h/mL
AUCt [5, 18]: 15700 ng·h/mL
Cmax [5, 18]: 323 ng/mL
Tmax ([5]; bupropion 150 mg alone (Day 1, Period 1), median, N = 24): 10.0 h
Metabolite to Parent AUCinf Ratio [5, 19]: 15.9
Metabolite to Parent AUCt Ratio [5, 19]: 15.9
Metabolite to Parent Cmax Ratio [5, 19]: 3.92
Metabolite to Parent AUCinf Ratio [5, 20]: 15.7
Metabolite to Parent AUCt Ratio [5, 20]: 15.4
Metabolite to Parent Cmax Ratio [5, 20]: 3.61
Cmax upon co-administration with elagolix, in words [5]: increased
changes in metabolite to parent ratios (OH-bupropion/bupropion) of Cmax and AUC ([5]; elagolix 300 mg BID): ≤ 12%
increase in Cmax upon co-administration with elagolix ([5]; elagolix 300 mg BID): 32%
AUCinf ratio, co-administered with elagolix vs bupropion alone [5, 21]: about 1.063
Cmax ratio, co-administered with elagolix vs bupropion alone [5, 21]: about 1.317

C#C[C@]1(O)CC[C@H]2[C@@H]3CCC4=CC(=O)CC[C@@H]4[C@H]3CC[C@@]21CC [levonorgestrel, 17α-Ethynyl-18-methylestr-4-en-17β-ol-3-one]
decrease in plasma concentrations of levonorgestrel ([1]; COC containing 0.1 mg levonorgestrel, elagolix 200 mg twice daily): 27%
Ratio (90% CI) AUC, co-administration with elagolix vs medication alone [1]: 0.73
Ratio (90% CI) Cmax, co-administration with elagolix vs medication alone [1]: 0.97
AUC(0-inf) ([1]; Study Day 1: EE/LNG 0.02 mg/0.1 mg, read-out: AUCinf, Central Value Reference): 42.1 ng·h/mL
AUC(0-t) [1, 11]: 31.1 ng·h/mL
Cmax ([1]; Study Day 1: EE/LNG 0.02 mg/0.1 mg, read-out: Cmax, Central Value Reference): 2.62 ng/mL
AUC(0-inf) [1, 12]: 30.5 ng·h/mL
AUC(0-t) [1, 13]: 25 ng·h/mL
Cmax ([1]; Study Day 18: EE/LNG 0.02 mg/0.1 mg + elagolix 200 mg, read-out: Cmax, Central Value Test): 2.54 ng/mL
decrease in AUCinf [1, 14]: 27%
decrease in Cmax [1, 14]: 3%
Effect on Plasma Exposure of Concomitant Drug (direction of change in AUC) [3]: ↓levonorgestrel
Effect on Plasma Exposure of Concomitant Drug (direction of change in AUC) [4]: ↓ levonor-

C#C[C@]1(O)CC[C@H]2[C@@H]3CCC4=CC(=NO)CC[C@@H]4[C@H]3CC[C@@]21CC (mixture of isomers) [Norelgestromin]
Ratio (90% CI) AUC, co-administration with elagolix vs medication alone [2, 15]: 0.85
Ratio (90% CI) Cmax, co-administration with elagolix vs medication alone [2, 15]: 0.87

CO[C@H]1/C=C/O[C@@]2(C)Oc3c(C)c(O)c4c(O)c(c(/C=N/N5CCN(C)CC5)c(O)c4c3C2=O)NC(=O)/C(C)=C\C=C\[C@H](C)[C@H](O)[C@@H](C)[C@@H](O)[C@@H](C)[C@H](OC(C)=O)[C@@H]1C [Rifampin]
effect of concomitant use on plasma concentrations of elagolix, in words [6]: increased

C#CC1(O)CC[C@H]2[C@@H]3CCC4=CC(=O)CC[C@@H]4[C@H]3CC[C@@]21CC (stereo partly shown) [Norgestrel]
Ratio (90% CI) AUC, co-administration with elagolix vs medication alone [2, 15]: 0.92
Ratio (90% CI) Cmax, co-administration with elagolix vs medication alone [2, 15]: 0.89

C#C[C@]1(O)CC[C@H]2[C@@H]3CCC4=CC(=O)CC[C@@H]4[C@H]3CC[C@@]21C [Norethindrone]
Ratio (90% CI) AUC, co-administration with elagolix vs medication alone [2, 22]: 0.88
Ratio (90% CI) Cmax, co-administration with elagolix vs medication alone [2, 22]: 0.95

CC(NC(C)(C)C)C(=O)c1cccc(Cl)c1.Cl (racemic) [bupropion, (±)-1-(3-chlorophenyl)-2-[(1,1-dimethylethyl)amino]-1-propanone hydrochloride, reference compound]
Cmax upon co-administration with elagolix, in words [5]: increased
increase in Cmax upon co-administration with elagolix ([5]; elagolix 300 mg BID): 25%
AUC(0-inf) ([5]; female, human, in vivo, 150 mg): 1130 ng·h/mL
AUC(0-t) ([5]; female, human, in vivo, 150 mg): 1090 ng·h/mL
Cmax ([5]; female, human, in vivo, 150 mg): 89.5 ng/mL
Tmax ([5]; female, human, in vivo, 150 mg): 4 h
changes in exposures when co-administered with elagolix, in words ([2]; elagolix 300 mg twice daily): No clinically significant changes

Cc1ncc2n1-c1ccc(Cl)cc1C(c1ccccc1F)=NC2 [midazolam]
Ratio (90% CI) AUC, co-administration with elagolix vs medication alone [2, 23]: 0.65
Ratio (90% CI) Cmax, co-administration with elagolix vs medication alone [2, 23]: 0.81
Ratio (90% CI) AUC, co-administration with elagolix vs medication alone [2, 24]: 0.46
Ratio (90% CI) Cmax, co-administration with elagolix vs medication alone [2, 24]: 0.56
Effect on Plasma Exposure of Concomitant Drug (direction of change in AUC) [3]: ↓ midazolam
Effect on Plasma Exposure of Concomitant Drug (direction of change in AUC) [4]: ↓ midazolam

COc1ccc2[nH]c([S+]([O-])Cc3ncc(C)c(OC)c3C)nc2c1 (stereo not shown) [omeprazole, 5-methoxy-2-[[(4-methoxy3,5-dimethyl-2-pyridinyl)methyl]sulfinyl]-1H-benzimidazole, reference compound]
Tmax ([7]; Study Day 1, omeprazole 40 mg): 2.0 h
Tmax ([7]; Study Day 11, omeprazole 40 mg + elagolix 300 mg BID): 2.0 h
t1/2 ([7]; female, human, in vivo): 1.57 h
increase in AUCinf ([7]; female, human, in vivo, 300 mg): 1.8 fold
increase in Cmax ([7]; female, human, in vivo, 300 mg): 1.9 fold
Cmax and AUCinf values upon co-administration with elagolix, in words ([7]; human, in vivo): increased
Effect on Plasma Exposure of Concomitant Drug (direction of change in AUC) [3]: ↑ omeprazole
Effect on Plasma Exposure of Concomitant Drug (direction of change in AUC) [4]: ↑ omeprazole

Reference: patent US20220257597A1, “Methods of Administering Elagolix” (AbbVie Inc., priority 2021, published 2022)
